Measured values published in ChEMBL document CHEMBL4706653, “Ultra-short lipopeptides against gram-positive bacteria while alleviating antimicrobial resistance” (Eur J Med Chem, 2021).
In brackets after ≈: the same amount, converted by molar mass. Residues, ends and D or L forms follow the SMILES beside them. *: point of attachment. Palmitoyl = CCCCCCCCCCCCCCCC(=O)*; Myristoyl = CCCCCCCCCCCCCC(=O)*; Octanoyl = CCCCCCCC(=O)*

Legend:
[1] = system: Staphylococcus aureus; assay: Antimicrobial activity against methicillin-resistant Staphylococcus aureus 113 after 18 hrs by broth microdilution method; assay type: functional
[2] = system: Bacillus subtilis; assay: Antimicrobial activity against Bacillus subtilis ATCC 23857 after 18 hrs by broth microdilution method; assay type: functional
[3] = system: Staphylococcus epidermidis; assay: Antimicrobial activity against Staphylococcus epidermidis ATCC 12228 after 18 hrs by broth microdilution method; assay type: functional
[4] = Therapeutic index, ratio of MHC for mouse RBC to geometric mean of peptide MIC for Staphylococcus epidermidis ATCC 12228; assay type: toxicity; details: pooled result: one value given for 6 cell lines, strains, targets or settings, read-out: TI
[5] = system: Erythrocyte; assay: Hemolytic activity against mouse erythrocytes measured after 1 hr; assay type: ADME, cell-based
[6] = system: Staphylococcus aureus; assay: Antimicrobial activity against Staphylococcus aureus ATCC 29213 after 18 hrs by broth microdilution method; assay type: functional
[7] = system: Staphylococcus aureus; assay: Antimicrobial activity against Staphylococcus aureus ATCC 25923 after 18 hrs by broth microdilution method; assay type: functional
[8] = system: Staphylococcus aureus; assay: Antimicrobial activity against methicillin-resistant Staphylococcus aureus 75 after 18 hrs by broth microdilution method; assay type: functional

Compound	MIC [1]	MIC [2]	MIC [3]	selectivity ratio [4]	MHC10 [5]	MIC [6]	MIC [7]	MIC [8]
CCCCCCCCCCCCCC(=O)N[C@@H](Cc1c[nH]c2ccccc12)C(=O)N[C@@H](CCCNC(=N)N)C(=O)N[C@@H](CCCNC(=N)N)C(N)=O (Myristoyl-Trp-Arg-Arg-NH2)	2 µM (≈ 1.45 µg/mL)	4 µM (≈ 2.9 µg/mL)	4 µM (≈ 2.9 µg/mL)	13.7	64 µM	8 µM (≈ 5.81 µg/mL)	8 µM (≈ 5.81 µg/mL)	2 µM (≈ 1.45 µg/mL)
CCCCCCCC(=O)N[C@@H](CCCNC(=N)N)C(=O)N[C@@H](CCCNC(=N)N)C(=O)N[C@@H](CCCNC(=N)N)C(N)=O (Octanoyl-Arg-Arg-Arg-NH2)	> 128 µM	> 128 µM	> 128 µM		> 256 µM	> 128 µM	> 128 µM	> 128 µM
CCCCCCCC(=O)N[C@@H](CCCNC(=N)N)C(=O)N[C@@H](CCCNC(=N)N)C(=O)N[C@@H](Cc1c[nH]c2ccccc12)C(N)=O (Octanoyl-Arg-Arg-Trp-NH2)	128 µM (≈ 82.2 µg/mL)	32 µM (≈ 20.5 µg/mL)	64 µM (≈ 41.1 µg/mL)	7.38	> 256 µM	64 µM (≈ 41.1 µg/mL)	64 µM (≈ 41.1 µg/mL)	64 µM (≈ 41.1 µg/mL)
CCCCCCCC(=O)N[C@@H](CCCNC(=N)N)C(=O)N[C@@H](Cc1c[nH]c2ccccc12)C(=O)N[C@@H](CCCNC(=N)N)C(N)=O (Octanoyl-Arg-Trp-Arg-NH2)	128 µM (≈ 82.2 µg/mL)	64 µM (≈ 41.1 µg/mL)	128 µM (≈ 82.2 µg/mL)	3.69	> 256 µM	128 µM (≈ 82.2 µg/mL)	> 128 µM	128 µM (≈ 82.2 µg/mL)
CCCCCCCC(=O)N[C@@H](CCCNC(=N)N)C(=O)N[C@@H](Cc1c[nH]c2ccccc12)C(=O)N[C@@H](Cc1c[nH]c2ccccc12)C(N)=O (Octanoyl-Arg-Trp-Trp-NH2)	32 µM (≈ 21.5 µg/mL)	16 µM (≈ 10.7 µg/mL)	16 µM (≈ 10.7 µg/mL)	29.5	> 256 µM	16 µM (≈ 10.7 µg/mL)	16 µM (≈ 10.7 µg/mL)	8 µM (≈ 5.37 µg/mL)
CCCCCCCC(=O)N[C@@H](Cc1c[nH]c2ccccc12)C(=O)N[C@@H](CCCNC(=N)N)C(=O)N[C@@H](CCCNC(=N)N)C(N)=O (Octanoyl-Trp-Arg-Arg-NH2)	128 µM (≈ 82.2 µg/mL)	64 µM (≈ 41.1 µg/mL)	32 µM (≈ 20.5 µg/mL)	5.65	> 256 µM	128 µM (≈ 82.2 µg/mL)	128 µM (≈ 82.2 µg/mL)	64 µM (≈ 41.1 µg/mL)
CCCCCCCCCCCCCCCC(=O)N[C@@H](CCCNC(=N)N)C(=O)N[C@@H](CCCNC(=N)N)C(=O)N[C@@H](CCCNC(=N)N)C(N)=O (Palmitoyl-Arg-Arg-Arg-NH2)	2 µM (≈ 1.45 µg/mL)	8 µM (≈ 5.79 µg/mL)	8 µM (≈ 5.79 µg/mL)	5.83	64 µM	32 µM (≈ 23.2 µg/mL)	8 µM (≈ 5.79 µg/mL)	8 µM (≈ 5.79 µg/mL)
CCCCCCCCCCCCCCCC(=O)N[C@@H](CCCNC(=N)N)C(=O)N[C@@H](CCCNC(=N)N)C(=O)N[C@@H](Cc1c[nH]c2ccccc12)C(N)=O (Palmitoyl-Arg-Arg-Trp-NH2)	2 µM (≈ 1.51 µg/mL)	4 µM (≈ 3.02 µg/mL)	8 µM (≈ 6.03 µg/mL)	5.05	32 µM	8 µM (≈ 6.03 µg/mL)	8 µM (≈ 6.03 µg/mL)	8 µM (≈ 6.03 µg/mL)
CCCCCCCCCCCCCCCC(=O)N[C@@H](CCCNC(=N)N)C(=O)N[C@@H](Cc1c[nH]c2ccccc12)C(=O)N[C@@H](CCCNC(=N)N)C(N)=O (Palmitoyl-Arg-Trp-Arg-NH2)	4 µM (≈ 3.02 µg/mL)	8 µM (≈ 6.03 µg/mL)	8 µM (≈ 6.03 µg/mL)	7.38	64 µM	16 µM (≈ 12.1 µg/mL)	8 µM (≈ 6.03 µg/mL)	8 µM (≈ 6.03 µg/mL)
CCCCCCCCCCCCCCCC(=O)N[C@@H](CCCNC(=N)N)C(=O)N[C@@H](Cc1c[nH]c2ccccc12)C(=O)N[C@@H](Cc1c[nH]c2ccccc12)C(N)=O (Palmitoyl-Arg-Trp-Trp-NH2)	8 µM (≈ 6.27 µg/mL)	64 µM (≈ 50.2 µg/mL)	16 µM (≈ 12.5 µg/mL)	18.3	> 256 µM	32 µM (≈ 25.1 µg/mL)	16 µM (≈ 12.5 µg/mL)	32 µM (≈ 25.1 µg/mL)
CCCCCCCCCCCCCCCC(=O)N[C@@H](Cc1c[nH]c2ccccc12)C(=O)N[C@@H](CCCNC(=N)N)C(=O)N[C@@H](CCCNC(=N)N)C(N)=O (Palmitoyl-Trp-Arg-Arg-NH2)	8 µM (≈ 6.03 µg/mL)	8 µM (≈ 6.03 µg/mL)	8 µM (≈ 6.03 µg/mL)	4	32 µM	8 µM (≈ 6.03 µg/mL)	8 µM (≈ 6.03 µg/mL)	8 µM (≈ 6.03 µg/mL)
CN[C@H](CC(C)C)C(=O)N[C@H]1C(=O)N[C@@H](CC(N)=O)C(=O)N[C@H]2C(=O)N[C@H]3C(=O)N[C@H](C(=O)N[C@H](C(=O)O)c4cc(O)cc(O)c4-c4cc3ccc4O)[C@H](O)c3ccc(c(Cl)c3)Oc3cc2cc(c3O[C@@H]2O[C@H](CO)[C@@H](O)[C@H](O)[C@H]2O[C@H]2C[C@](C)(N)[C@H](O)[C@H](C)O2)Oc2ccc(cc2Cl)[C@H]1O [VANCOMYCIN]	< 1 µM	< 1 µM	< 1 µM			< 1 µM	< 1 µM	< 1 µM
